What was measured:
[1] = biological target: T1, hM1 (human Muscarinic receptor subtype 1) (Homo sapiens, UniProt P11229); experiment: Human M1 calcium mobilization FLIPR assay; type: cell-based; settings: CHO cells expressing hM1, intracellular Ca2+ release
T1 construct: expressed in transfected cells; host or cells: CHO cells (Chinese hamster ovary cells, ATCC)
T1 sequence (P11229 1-460): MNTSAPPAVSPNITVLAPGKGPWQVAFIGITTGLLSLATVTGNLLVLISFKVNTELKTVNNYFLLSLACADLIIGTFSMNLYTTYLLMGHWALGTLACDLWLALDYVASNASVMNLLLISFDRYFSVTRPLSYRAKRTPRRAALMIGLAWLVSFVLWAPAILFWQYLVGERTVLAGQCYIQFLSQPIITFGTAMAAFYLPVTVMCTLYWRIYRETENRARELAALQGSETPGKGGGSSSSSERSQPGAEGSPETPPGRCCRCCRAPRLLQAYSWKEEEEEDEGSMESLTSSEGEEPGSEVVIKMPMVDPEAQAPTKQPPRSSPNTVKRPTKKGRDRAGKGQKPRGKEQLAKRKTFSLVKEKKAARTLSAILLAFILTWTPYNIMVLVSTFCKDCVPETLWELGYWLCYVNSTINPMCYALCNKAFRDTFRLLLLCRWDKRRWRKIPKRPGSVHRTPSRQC
Experimental: (§1) The compound activity in the present invention (EC50 or IC50) is measured using a 384 plate-based imaging assay that monitors drug induced intracellular Ca^2+ release in whole cells. Activation of hM1 (human Muscarinic receptor subtype 1, gene bank access NM_000738), rM1 (rat Muscarinic receptor subtype 1, gene bank access NM_080773), hM3 (human Muscarinic receptor subtype 3, gene bank access NM_000740NM_000740) and hM5 (human Muscarinic receptor subtype 5, gene bank access NM_0121258), receptors expressed in CHO cells (Chinese hamster ovary cells, ATCC) is quantified in a Molecular Devices FLIPR II™ instrument as an increase in fluorescent signal. Inhibition of hM3 and hM5 by compounds is determined by the decrease in fluorescent signal in response to 2 nM acetylcholine activation.
(§2) Prior to experiment, the cell culture medium is removed from the plates by inversion. […] Plates are incubated at 37° C. for 60 minutes prior to start the experiment. The incubation is terminated by washing the cells four times in assay buffer, leaving a residual 25 μl buffer per well. Cell plates are then transferred to the FLIPR, ready for compound additions.
(§3) The day of experiment, acetylcholine and compounds are diluted in assay buffer in three-fold concentration range (10 points serial dilution) for addition by FLIPR instrument. For all calcium assays, a baseline reading is taken for 10 seconds followed by the addition of 12.5 μl of compounds, resulting in a total well volume of 37.5 μl. Data is collected every second for 60 pictures and then every 6 seconds for 20 pictures prior to the addition of agonist. For hM3 and hM5, before agonist addition, a second baseline reading is taken for 10 seconds followed by the addition of 12.5 μl of agonist or buffer, producing a final volume of 50 μl. After agonist stimulation, the FLIPR continues to collect data every second for 60 pictures and then every 6 seconds for 20 pictures. The fluorescence emission is read using filter 1 (emission 510-570 nm) by the FLIPR on board CCD camera.
(§4) Calcium mobilization output data are calculated as the maximal relative fluorescence unit (RFU) minus the minimal value for both compound and agonist reading frame (except for hM1 and rM1 using only the maximal RFU). Data are analyzed using sigmoidal fits of a non-linear curve-fitting program (XLfit version 4.2.2 Excel add-in version 4.2.2 build 18 math 1Q version 2.1.2 build 18). All pEC50 and pIC50 values are reported as arithmetic means±standard error of mean of ‘n’ independent experiments.

[2] = biological target: T2, hM3 (human Muscarinic receptor subtype 3) (Homo sapiens, UniProt P20309); experiment: Human M3 calcium mobilization FLIPR assay; type: cell-based; settings: CHO cells expressing hM3, intracellular Ca2+ release
T2 construct: expressed in transfected cells; host or cells: CHO cells (Chinese hamster ovary cells, ATCC)
Experimental: as §1, §2, §3, §4

cloned human M4 receptor = biological target: T3, cloned human M4 receptor (Homo sapiens, UniProt P08173); experiment: hM4 receptor GTPγS binding; type: biochemical; settings: CHO membranes expressing hM4, [35S]GTPγS binding
T3 construct: purchased Perkin-Elmer RBHM4M; host or cells: CHO cell membranes
T3 sequence (P08173 1-479): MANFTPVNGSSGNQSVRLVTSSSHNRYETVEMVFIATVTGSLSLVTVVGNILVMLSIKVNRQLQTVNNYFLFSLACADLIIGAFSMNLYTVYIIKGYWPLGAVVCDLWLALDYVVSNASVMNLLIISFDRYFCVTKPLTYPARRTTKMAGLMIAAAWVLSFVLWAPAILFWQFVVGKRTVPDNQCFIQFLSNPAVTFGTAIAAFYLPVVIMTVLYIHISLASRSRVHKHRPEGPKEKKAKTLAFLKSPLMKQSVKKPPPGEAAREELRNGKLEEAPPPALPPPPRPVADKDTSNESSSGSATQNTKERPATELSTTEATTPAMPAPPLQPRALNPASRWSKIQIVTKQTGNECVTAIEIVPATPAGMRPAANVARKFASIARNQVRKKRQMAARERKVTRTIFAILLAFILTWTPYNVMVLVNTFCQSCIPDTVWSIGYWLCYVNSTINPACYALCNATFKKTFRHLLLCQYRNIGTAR
Experimental: Membranes produced from Chinese hamster ovary cells (CHO) expressing the cloned human M4 receptor (human Muscarinic receptor subtype 4, gene bank access NM_000741), are obtained from Perkin-Elmer (RBHM4M). The membranes are thawed at 37° C., passed 3 times through a 23-gauge blunt-end needle, diluted in the GTPγS binding buffer (50 mM Hepes, 20 mM NaOH, 100 mM NaCl, 1 mM EDTA, 5 mM MgCl2, pH 7.4, 100 μM DTT). The EC50, IC50 and Emax of the compounds of the invention are evaluated from 10-point dose-response curves (three fold concentration range) done in 60 μl in 384-well non-specific binding surface plate (Corning). Ten microliters from the dose-response curves plate (5× concentration) are transferred to another 384 well plate containing 25 μl of the following: 10 μg of hM4 membranes, 500 μg of Flashblue beads (Perkin-Elmer) and GDP 40 μM. An additional 15 μl containing 3.3× (60,000 dpm) of GTPγ^35S (0.4 nM final) are added to the wells resulting in a total well volume of 50 μl. Basal and maximal stimulated [^35S]GTPγS binding are determined in absence and presence of 30 μM final of acetylcholine agonist. The membranes/beads mix are pre-incubated for 15 minutes at room temperature with 40 μM GDP prior to distribution in plates (20 μM final). The reversal of acetylcholine-induced stimulation (10 μM final) of [^35S]GTPγS binding is used to assay the antagonist properties (IC50) of the compounds. The plates are incubated for 60 minutes at room temperature then centrifuged at 400 rpm for 5 minutes. The radioactivity (cpm) is counted in a Trilux (Perkin-Elmer).
Values of EC50, IC50 and Emax are obtained using sigmoidal fits of a non-linear curve-fitting program (XLfit version 4.2.2 Excel add-in version 4.2.2 build 18 math 1Q version 2.1.2 build 18) of percent stimulated [^35S]GTPγS binding vs. log(molar ligand). All pEC50 and pIC50 values are reported as arithmetic means±standard error of mean of ‘n’ independent experiments.

T2 sequence (P20309 whole entry): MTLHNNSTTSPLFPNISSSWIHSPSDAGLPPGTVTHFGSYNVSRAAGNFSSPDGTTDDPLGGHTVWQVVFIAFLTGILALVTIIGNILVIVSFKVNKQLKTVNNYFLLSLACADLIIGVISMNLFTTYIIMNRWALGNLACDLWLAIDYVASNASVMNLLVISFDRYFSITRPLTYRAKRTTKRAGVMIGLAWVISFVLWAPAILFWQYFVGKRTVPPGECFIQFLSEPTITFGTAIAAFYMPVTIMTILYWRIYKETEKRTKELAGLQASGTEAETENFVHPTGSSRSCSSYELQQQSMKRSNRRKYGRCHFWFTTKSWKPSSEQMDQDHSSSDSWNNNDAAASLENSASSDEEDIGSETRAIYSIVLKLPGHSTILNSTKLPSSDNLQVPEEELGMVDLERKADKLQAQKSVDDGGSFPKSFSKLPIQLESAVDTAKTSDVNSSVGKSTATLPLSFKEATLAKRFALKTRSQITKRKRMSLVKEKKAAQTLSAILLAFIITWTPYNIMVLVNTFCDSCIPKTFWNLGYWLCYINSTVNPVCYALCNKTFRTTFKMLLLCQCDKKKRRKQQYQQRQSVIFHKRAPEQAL

EC50 [1] | EC50 [2] | EC50 (cloned human M4 receptor) | Compound
36 nM | > 40000 nM | > 30000 nM | CC1(N2CCC(N3C(=O)C[C@H]4CCCC[C@@H]43)CC2)CCN(C(=O)C2CC2)CC1 [Example 15, (3aR,7aS)-1-[1-[1-(cyclopropanecarbonyl)-4-methyl-4-piperidyl]-4-piperidyl]-3a,4,5,6,7,7a-hexahydro-3H-indol-2-one]
18.4 nM | > 22100 nM | > 90000 nM | CCOC(=O)N1CCC(C)(N2CCC(N3C(=O)N[C@H]4CCCC[C@@H]43)CC2)C1 (single isomer, unassigned) [Example 21]
66.6 nM | > 40000 nM | > 30000 nM | CCC(=O)N1CCC(C)(N2CCC(N3C(=O)N[C@H]4CCCC[C@@H]43)CC2)CC1 [Example 18, (3aS,7aS)-3-[1-(4-methyl-1-propanoyl-4-piperidyl)-4-piperidyl]-3a,4,5,6,7,7a-hexahydro-1H-benzimidazol-2-one]

More lines, now with the values behind:

Compound | EC50 [1] | EC50 [2] | EC50 (cloned human M4 receptor)
CCOC(=O)N1CCC(C)(N2CCC(N3C(=O)N[C@H]4CCCC[C@@H]43)CC2)C1 (mixture of isomers) [Example 07, Ethyl 3-[4-[(3aS,7aS)-2-oxo-3a,4,5,6,7,7a-hexahydro-3H-benzoimidazol-1-yl]-1-piperidyl]-3-methyl-pyrrolidine-1-carboxylate] | 14 nM | > 40000 nM | > 21000 nM
CC(C)OC(=O)N1CCC(C)(N2CCC(N3C(=O)N[C@@H]4CCCC[C@H]43)CC2)CC1 [Example 05, Propan-2-yl 4-[4-[(3aR,7aR)-2-oxo-3a,4,5,6,7,7a-hexahydro-3H-benzoimidazol-1-yl]-1-piperidyl]-4-methyl-piperidine-1-carboxylate] | 25 nM | > 49000 nM | > 30000 nM
C#CCOC(=O)N1CCC(C)(N2CCC(N3C(=O)N[C@H]4CCCC[C@@H]43)CC2)C1 (mixture of isomers) [Example 09, Prop-2-ynyl 3-[4-[(3aS,7aS)-2-oxo-3a,4,5,6,7,7a-hexahydro-3H-benzoimidazol-1-yl]-1-piperidyl]-3-methyl-pyrrolidine-1-carboxylate] | < 3.6 nM | > 40000 nM | > 13000 nM
CCOC(=O)N1CCC(C)(N2CCC(N3C(=O)N[C@H]4CCCC[C@@H]43)CC2)CC1 [Example 01, Ethyl 4-[4-[(3aS,7aS)-2-oxo-3a,4,5,6,7,7a-hexahydro-3H-benzoimidazol-1-yl]-1-piperidyl]-4-methyl-piperidine-1-carboxylate] | 1.9 nM | 1400 nM | > 1200 nM

Source: patent publication US8119661B2, “Piperidine derivatives and their use as muscarinic receptor modulators” (AstraZeneca AB, priority 2007, dated 2012)
